Laboratory results reported in patent US20170166558A1, “O-GLCNAC TRANSFERASE (OGT) INHIBITORS AND USES THEREOF” (President and Fellows of Harvard College, priority 2014, published 2017).

How the values were obtained:
[1] = biological target: T1, full length human OGT (ncOGT) (Homo sapiens, UniProt O15294); test: UDP-Glo luminescence-based coupled enzyme assay; format: biochemical
T1 construct: made in house
T1 sequence (O15294 1-1046): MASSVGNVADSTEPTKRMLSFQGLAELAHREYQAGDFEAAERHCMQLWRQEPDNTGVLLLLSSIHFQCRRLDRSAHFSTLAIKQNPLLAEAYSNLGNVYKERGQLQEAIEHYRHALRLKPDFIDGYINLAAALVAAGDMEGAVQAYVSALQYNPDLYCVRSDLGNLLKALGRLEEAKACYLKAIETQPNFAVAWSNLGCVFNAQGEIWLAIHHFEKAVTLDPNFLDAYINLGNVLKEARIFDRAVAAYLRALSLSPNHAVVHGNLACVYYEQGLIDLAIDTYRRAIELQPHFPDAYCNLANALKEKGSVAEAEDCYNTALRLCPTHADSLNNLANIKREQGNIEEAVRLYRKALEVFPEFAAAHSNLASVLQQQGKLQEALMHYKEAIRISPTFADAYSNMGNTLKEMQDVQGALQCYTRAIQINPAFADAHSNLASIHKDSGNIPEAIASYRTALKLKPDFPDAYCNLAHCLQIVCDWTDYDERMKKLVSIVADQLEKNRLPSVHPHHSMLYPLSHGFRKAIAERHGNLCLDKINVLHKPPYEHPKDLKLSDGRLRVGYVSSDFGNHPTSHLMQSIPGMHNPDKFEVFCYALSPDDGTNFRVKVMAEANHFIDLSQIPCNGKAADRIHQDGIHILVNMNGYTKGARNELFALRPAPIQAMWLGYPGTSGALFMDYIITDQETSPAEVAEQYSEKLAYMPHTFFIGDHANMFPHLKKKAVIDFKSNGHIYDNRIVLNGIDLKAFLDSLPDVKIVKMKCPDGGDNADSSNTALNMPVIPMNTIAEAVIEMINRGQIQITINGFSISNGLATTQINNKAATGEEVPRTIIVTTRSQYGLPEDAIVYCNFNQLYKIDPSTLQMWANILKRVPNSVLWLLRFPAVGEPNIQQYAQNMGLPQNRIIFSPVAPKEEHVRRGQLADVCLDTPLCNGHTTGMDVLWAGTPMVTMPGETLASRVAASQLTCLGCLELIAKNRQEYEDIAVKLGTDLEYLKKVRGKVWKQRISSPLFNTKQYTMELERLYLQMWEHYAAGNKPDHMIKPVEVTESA
Description: UDP-Glo assay: Materials for this assay were obtained from Promega (catalog #V6961), and the experiment was performed largely as outlined by the manufacturer. IC50 values were determined in the range of 0 to 100 μM (eleven concentration points). Assays were performed either in white, 96-well or ½-volume 96-well, plates. This assay was run with 125 μM CKII3K peptide acceptor. Reaction volumes were between 14 (half volume plates) and 20 (normal volume plates) μL. Reactions contained the following components: 300 nM ncOGT, 125 μM CKII3K and 40 μM UDP-GlcNAc in 1× PBS pH 7.4 supplemented with 1 mM THP. Reactions were incubated for one hour at 25° C. and quenched by the addition of an equal volume of UDP-Glo nucleotide detection reagent, prepared and used according to manufacturer guidelines. The quenched reactions were then mixed briefly by shaking at 1800 rpm in a Thermomixer C, and incubated for one hour at room temperature prior to reading luminescence, as per the manufacturers guidelines. Data were analyzed by Microsoft Excel and Prism 6 (Graphpad). When evaluating the effect of sugar donor concentration, this parameter was varied, while all other conditions remained as described above. Each sample in this case was run in duplicate, unless otherwise specified. The 40 μM curve in FIG. 16C has each point in quadruplicate. Similarly, there is an n=9 for each point in the OSMI-1 curve in FIG. 16B.

[2] = tested on: OGT in CHO cells; test: Immunoblotting of global O-GlcNAcylation (RL2) in CHO cells; format: cell-based, Chinese hamster
Description: (§1) In vivo inhibition of glycosylation: For all immunoblotting experiments, CHO-K1 (CHO) cells were grown in F12-K media supplemented with 10% FBS and antibiotics at 37° C. in a 5% CO2 incubator. Cells were treated by adding indicated inhibitor in DMSO vehicle (0.5% final vehicle concentration) upon reaching 70% confluence. After indicated treatment length, cells were harvested by aspirating growth media and washing with ice cold 1× PBS. Cells were subsequently lysed in boiling 1% SDS/20 mM HEPES 7.9. After cooling to room temperature, 1 mM PMSF, 10 μM PUGNAC, 10 μM TMG and 1× Complete protease inhibitor cocktail were added to the solution. The mixture was sonicated and then subjected to a 5 minute incubation at 95° C. The samples were centrifuged for 15 minutes at 20,000×g and the supernatant was collected and the total protein was measured by BCA assay (BIO-RAD).
(§2) The sample was separated by SDS-PAGE (Bio-Rad 4-15%, Cat: 345-0028), transferred to a nitrocellulose membrane (iBlot, Invitrogen) and probed with the indicated antibody. Tyipcally, membranes were blocked with 4% BSA in 1× TBS+0.04% tween-20 for 1 hour before incubating with antibody (typically diluted 1:1000 in 4% BSA inlx TBS+0.04% tween-20) overnight at 4° C. Membranes were then washed three times with 1× TBS+0.04% tween-20 and incubated with secondary antibody (typically diluted 1:5000 in 4% BSA in 1× TBS+0.04% tween-20) for 1 hour at room temperature. Lastly, membranes were washed 3× with 1× TBS+0.04% tween-20 and imaged with ECL. D283-Med cells were treated as above but grown in F12-K media supplemented with 10% FBS and antibiotics. HEK, HeLa and LNCaP cells were treated as above but grown in RPMI media supplemented with 10% FBS and antibiotics.

[3] = tested on: OGT in CHO cells; test: Markers of OGT inhibition in CHO cells (Nup62 mass shift, OGA levels, H2B-S112 O-GlcNAc); format: cell-based, Chinese hamster
Description: as §1, §2

[4] = tested on: cell surface glycans of CHO cells; test: Lectin blots of cell surface glycans of CHO cells; format: cell-based, Chinese hamster; details: 50 μM, 24 hours
Description: Lectin blots were performed with the CHO-K1 cell lysate as prepared above. […] The biotin label on the lectins was visualized with incubation with Streptavidin-HRP (Pierce) followed by ECL detection and imaging.

[5] = tested on: CHO cells; test: ApoTox-Glo cell viability, cytotoxicity and apoptosis signaling assay; format: cell-based, Chinese hamster
Description: Cell viability, cytotoxicity and apoptosis signaling assays were performed in a 96-well plate using ApoTox-Glo reagent (Promega) according to the manufacturer's instructions.

[6] = tested on: CHO, HEK-293, HeLa and D283-Med cells; test: Immunoblotting of global O-GlcNAcylation in various mammalian cell types; format: cell-based; details: 50 μM, 24 hours
Description: as §1
The sample was separated by SDS-PAGE (Bio-Rad 4-15%, Cat: 345-0028), transferred to a nitrocellulose membrane (iBlot, Invitrogen) and probed with the indicated antibody. Tyipcally, membranes were blocked with 4% BSA in 1× TBS+0.04% tween-20 for 1 hour before incubating with antibody (typically diluted 1:1000 in 4% BSA inlx TBS+0.04% tween-20) overnight at 4° C. […]

IC50 ([1]; 40 μM UDP-GlcNAc, 125 μM CKII3K peptide, read-out: IC50 against ncOGT, coupled enzyme assay): 2700 nM
Mode of inhibition with respect to UDP-GlcNAc ([1]; various UDP-GlcNAc concentrations): did not act competitively
Structure (SMILES): COc1ccccc1[C@@H](NS(=O)(=O)c1ccc2[nH]c(=O)ccc2c1)C(=O)N(Cc1ccco1)Cc1cccs1 [OSMI-1, (R)—N-(furan-2-ylmethyl)-2-(2-methoxyphenyl)-2-(2-oxo-1,2-dihydroquinoline-6-sulfonamido)-N-(thiophen-2-ylmethyl)acetamide]
Onset of reduction of global O-GlcNAcylation ([2]; 50 μM, 8-hour time course): within two hours
Concentration of maximal reduction of global O-GlcNAcylation ([2]; 24 hr, 10-100 μM tested): 50 µM
Cellular OGA levels [3]: reduced cellular OGA
Nup62 mass shift [3]: shift to a lower molecular weight
O-GlcNAc modification of histone H2B-S112 [3]: greatly reduced
Changes in bands detected by ConA, PHA-L, ECL, GSL-I, PNA or DBA [4]: minimal changes
Cytotoxicity ([5]; 50 μM): not cytotoxic
Decrease of cell viability ([5]; 50 μM, 24 hours): about 50%
Apoptotic signaling ([5]; up to 50 μM): does not trigger apoptotic signaling
Global O-GlcNAc levels in four cell lines [6]: reduce global O-GlcNAc levels in all four lines examined
